Experiments:
[1] = in vitro; conditions: human
[2] = system: West Nile virus (WN02 Kern 515); experiment: microbe, parasite or virus in culture; type: cell-based; conditions: Huh-7, 144 h, read-out: EC50 (concentration required to prevent virus-induced CPE by 50%)
[3] = system: Yellow Fever virus (YFV 17D); experiment: microbe, parasite or virus in culture; type: cell-based; conditions: Huh-7, 120 h, read-out: EC50 (concentration required to prevent virus-induced CPE by 50%)
[4] = system: Dengue virus (DENV-2), New Guinea C; experiment: microbe, parasite or virus in culture; type: cell-based; conditions: DENV2, Huh-7, 144 h, read-out: EC50 (concentration required to prevent virus-induced CPE by 50%)

CNc1nc(N)nc2c1ncn2[C@@H]1O[C@H](CO[P@@](=O)(N[C@@H](C)C(=O)OC(C)C)Oc2ccccc2)[C@@H](O)[C@]1(F)Cl [Compound 8, (S)-Isopropyl-2-(((S)-(((2R,3R,4S,5R)-5-(2-amino-6-(methylamino)-9H-purin-9-yl)-4-chloro-4-fluoro-3-hydroxytetrahydrofuran-2-yl)methoxy)(phenoxy)phosphoryl)amino) propanoate]
CC50 [1]: > 100 µM | EC50 [2]: 0.32 µM | EC50 [3]: 0.12 µM | EC50 [4]: 0.32 µM

— patent US20240226131A1, “2'-CHLORO-2'-FLUORO-N2-AMINO-N6-M[…] NUCLEOTIDES FOR […]” (priority 2021, published 2024)
